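Interpolation was linear, between the two tested concentrations surrounding the appropriate level; five concentrations were tested over 48 hours in 96-well plates. At the TGI there is no net growth.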
Key:
Test in all cases: NCI tumour cell line growth inhibition, 48 h
786-0 renal = tested on: 786-0 renal
A498 renal = tested on: A498 renal
A549 NSCLC = tested on: A549 NSCLC
ACHN renal = tested on: ACHN renal
BT-549 breast = tested on: BT-549 breast
CAKI-1 renal = tested on: CAKI-1 renal
CCRF-CEM leukemia = tested on: CCRF-CEM leukemia
COLO 205 colon = tested on: COLO 205 colon
DU-145 prostate = tested on: DU-145 prostate
EKVX NSCLC = tested on: EKVX NSCLC
HCT-116 colon = tested on: HCT-116 colon
HL-60(TB) leukemia = tested on: HL-60(TB) leukemia
HOP-62 NSCLC = tested on: HOP-62 NSCLC
HOP-92 NSCLC = tested on: HOP-92 NSCLC
HS 578T breast = tested on: HS 578T breast
HT29 colon = tested on: HT29 colon
IGROV1 ovarian = tested on: IGROV1 ovarian
K-562 leukemia = tested on: K-562 leukemia
KM12 colon = tested on: KM12 colon
LOX IMVI melanoma = tested on: LOX IMVI melanoma
M14 melanoma = tested on: M14 melanoma
MALME-3M melanoma = tested on: MALME-3M melanoma
MCF7 breast = tested on: MCF7 breast
MDA-MB-231 breast = tested on: MDA-MB-231 breast
MDA-MB-435 = tested on: MDA-MB-435
MDA-N = tested on: MDA-N
MOLT-4 leukemia = tested on: MOLT-4 leukemia
NCI-H226 lung = tested on: NCI-H226 lung
NCI-H23 lung = tested on: NCI-H23 lung
NCI-H460 lung = tested on: NCI-H460 lung
NCI-H522 lung = tested on: NCI-H522 lung
NCI/ADR-RES ovarian = tested on: NCI/ADR-RES ovarian
OVCAR-3 ovarian = tested on: OVCAR-3 ovarian
OVCAR-4 ovarian = tested on: OVCAR-4 ovarian
OVCAR-5 ovarian = tested on: OVCAR-5 ovarian
OVCAR-8 ovarian = tested on: OVCAR-8 ovarian
PC-3 prostate = tested on: PC-3 prostate
RPMI-8226 leukemia = tested on: RPMI-8226 leukemia
RXF 393 renal = tested on: RXF 393 renal
SF-268 CNS = tested on: SF-268 CNS
SF-295 CNS = tested on: SF-295 CNS
SF-539 CNS = tested on: SF-539 CNS
SK-MEL-28 melanoma = tested on: SK-MEL-28 melanoma
SK-MEL-5 melanoma = tested on: SK-MEL-5 melanoma
SK-OV-3 ovarian = tested on: SK-OV-3 ovarian
SN12C renal = tested on: SN12C renal
SNB-19 CNS = tested on: SNB-19 CNS
SNB-75 CNS = tested on: SNB-75 CNS
SR leukemia = tested on: SR leukemia
SW-620 colon = tested on: SW-620 colon
T-47D breast = tested on: T-47D breast
TK-10 renal = tested on: TK-10 renal
U251 CNS = tested on: U251 CNS
UACC-257 melanoma = tested on: UACC-257 melanoma
UACC-62 melanoma = tested on: UACC-62 melanoma
UO-31 renal = tested on: UO-31 renal
HCC-2998 colon = tested on: HCC-2998 colon
HCT-15 colon = tested on: HCT-15 colon
SK-MEL-2 melanoma = tested on: SK-MEL-2 melanoma

Measured: TGI

C/C(=C/CC[C@]1(CO)CC[C@]2(CO)[C@H](CC[C@@H]3[C@@]4(C)CC[C@H](OC5OCC(O)C(O)C5OC5OC(CO)C(O)C(O)C5O)C(C)(C)[C@@H]4CC[C@]32C)[C@H]1O)CO (some centres not stated)
not listed: HCC-2998 colon | HCT-15 colon | SK-MEL-2 melanoma
> 100 µM: all other assays above

CC(C)CN=C(N)N=C(N)N
not listed: A498 renal | CAKI-1 renal | CCRF-CEM leukemia
> 100 µM: all other assays above
